Target: T1, human GCGR (Homo sapiens, UniProt P47871)
T1 construct: expressed in transfected cells; grown under Blasticidin and Hygromycin selection
Test: cAMP activity assay, cells expressing human GCGR
Format: cell-based
Conditions: ratio of hGCGR EC50 to hGLP1R EC50, Table 7
Protocol: Activity of the peptides and the conjugates at the Glucagon receptor (GCGR) and GLP-1 receptor (GLP1R) may be measured in a cAMP activity assay as follows.
Peptides are dissolved in 100% DMSO and serially diluted to generate 10 point titrations. The peptide solutions are then transferred into 384-well assay plates (150 nL/well). Assay ready frozen cells expressing human GIPR, GLP1R or human GCGR are suspended in growth media consisting of DMEM medium (GIBCO), 10% FBS (GIBCO), 1×NEAA(GIBCO), 1×P/S (GIBCO), 10 μg/mL Blasticidin (GIBCO) and 200 μg/mL Hygromycin (GIBCO). […] The cell suspensions (15 μL) are then added to the assay plates containing the peptide solutions (30,000 cells/well for human GCGR; 10,000 cells/well for human GLP1R and 15,000 cells/well for human GIPR). The cells are incubated for one hour at room temperature in the dark.
Production of cAMP may be determined using HitHunter™ cAMPXS kits (DiscoverX) following the manufacturer's protocol. The plates are incubated for overnight at room temperature in the dark. Luminescence may be measured using an EnVision Multilabel plate reader (Perkin Elmer). Native GIP, GLP-1 and Glucagon (Bachem) may be used as control peptides. EC50 values may be calculated using uses a 4 parameter logistic fit based on the Levenberg-Marquardt algorithm.

T1 sequence (P47871 26-477): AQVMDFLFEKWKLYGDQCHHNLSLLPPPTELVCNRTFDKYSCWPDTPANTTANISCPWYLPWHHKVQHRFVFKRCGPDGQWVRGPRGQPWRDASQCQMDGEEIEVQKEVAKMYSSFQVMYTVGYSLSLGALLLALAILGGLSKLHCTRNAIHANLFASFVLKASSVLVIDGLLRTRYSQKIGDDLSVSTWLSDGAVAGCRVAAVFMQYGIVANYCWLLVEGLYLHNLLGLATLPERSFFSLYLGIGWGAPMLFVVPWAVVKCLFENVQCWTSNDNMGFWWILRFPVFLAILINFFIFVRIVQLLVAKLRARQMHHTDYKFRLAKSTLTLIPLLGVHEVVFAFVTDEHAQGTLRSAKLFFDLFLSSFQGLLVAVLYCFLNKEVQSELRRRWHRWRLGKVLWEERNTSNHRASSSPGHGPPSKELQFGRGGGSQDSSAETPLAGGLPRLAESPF

SMILES: CC(C)C[C@H](NC(=O)[C@H](Cc1ccc(O)cc1)NC(=O)[C@H](CCCCN)NC(=O)[C@H](CO)NC(=O)[C@H](CCCCN)NC(=O)[C@H](CC(=O)O)NC(=O)[C@H](CO)NC(=O)[C@@H](NC(=O)[C@H](Cc1ccccc1)NC(=O)[C@@H](NC(=O)CNC(=O)[C@H](CCC(N)=O)NC(=O)[C@@H](CO)NC(=O)[C@@H](N)Cc1c[nH]cn1)[C@@H](C)O)[C@@H](C)O)C(=O)N[C@@H](CC(=O)O)C(=O)N[C@@H](CCC(=O)O)C(=O)N[C@@H](CCCNC(=N)N)C(=O)N[C@@H](C)C(=O)N[C@@H](C)C(=O)N[C@@H](CCC(N)=O)C(=O)N[C@@H](CC(=O)O)C(=O)N[C@@H](Cc1ccccc1)C(=O)N[C@H](C(=O)N[C@@H](CCCCN=[N+]=[N-])C(=O)N[C@@H](Cc1c[nH]c2ccccc12)C(=O)N[C@@H](CC(C)C)C(=O)N[C@@H](CC(C)C)C(=O)N[C@@H](CC(=O)O)C(=O)N[C@H](C(N)=O)[C@@H](C)O)C(C)C [PEP88]
- GCGR/GLP1R ratio: 0.97

Source: US11058775B2, “Insulin dimer-incretin conjugates” (Merck Sharp & Dohme Corp., priority 2016, dated 2021)
